According to patent US20210045385A1, “PYRIDAZINONE-SUBSTITUTED KETOXIMES AS HERBICIDES” (FMC Corporation, priority 2018, published 2021):

Experiments:
Format in all cases: in vivo
[1] = test system: ragweed (common ragweed, Ambrosia elatior); assay: Test A preemergence, visual plant response rating; conditions: for Ragweed plant response rating: 125 g ai/ha, preemergence, 0 to 100 scale, 0 no effect, 100 complete control; for Ragweed plant response rating (0 to 100 scale): 500 g ai/ha Preemergence, approx. 10 days
Procedure, shortened: (§1)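 Preemergence: seeds in loam/sand blend given directed soil spray of compound in non-phytotoxic solvent with surfactant. Postemergence: plants 2–10 cm, one- to two-leaf stage, sprayed with same formulation. Visual injury rated vs untreated controls after ~10 days in greenhouse, 0 (no effect) to 100 (complete control).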

[2] = test system: pigweed (Amaranthus retroflexus); assay: Test A preemergence, visual plant response rating; conditions: for Pigweed plant response rating: 125 g ai/ha, preemergence, 0 to 100 scale, 0 no effect, 100 complete control; for Pigweed plant response rating (0 to 100 scale): 500 g ai/ha Preemergence, approx. 10 days
Procedure, shortened: as §1

[3] = test system: Italian ryegrass (Lolium multiflorum); assay: Test A preemergence, visual plant response rating; conditions: for Ryegrass, Italian plant response rating: 125 g ai/ha, preemergence, 0 to 100 scale, 0 no effect, 100 complete control; for Ryegrass, Italian plant response rating (0 to 100 scale): 500 g ai/ha Preemergence, approx. 10 days
Procedure, shortened: as §1

kochia (Kochia scoparia) [4] = assay: Test A preemergence, visual plant response rating; conditions: for Kochia plant response rating: 125 g ai/ha, preemergence, 0 to 100 scale, 0 no effect, 100 complete control; for Kochia plant response rating (0 to 100 scale): 500 g ai/ha Preemergence, approx. 10 days
Procedure, shortened: as §1

[5] = test system: barnyardgrass (Echinochloa crus-galli); assay: Test A preemergence, visual plant response rating; conditions: for Barnyardgrass plant response rating: 125 g ai/ha, preemergence, 0 to 100 scale, 0 no effect, 100 complete control; for Barnyardgrass plant response rating (0 to 100 scale): 500 g ai/ha Preemergence, approx. 10 days
Procedure, shortened: as §1

[6] = test system: foxtail, giant (giant foxtail, Setaria faberii); assay: Test A preemergence, visual plant response rating; conditions: for Foxtail, Giant plant response rating: 125 g ai/ha, preemergence, 0 to 100 scale, 0 no effect, 100 complete control; for Foxtail, Giant plant response rating (0 to 100 scale): 500 g ai/ha Preemergence, approx. 10 days
Procedure, shortened: as §1

[7] = test system: galium (catchweed bedstraw, Galium aparine); assay: Test A postemergence, visual plant response rating; conditions: for Galium plant response rating (0 to 100 scale): 500 g ai/ha, postemergence, 0 is no effect, 100 is complete control; for Galium plant response rating: Postemergence, 125 g ai/ha, 0 to 100 scale (0 no effect, 100 complete control)
Procedure, shortened: as §1

[8] = test system: ragweed (common ragweed, Ambrosia elatior); assay: Test A postemergence, visual plant response rating; conditions: for Ragweed plant response rating (0 to 100 scale): 500 g ai/ha, postemergence, 0 is no effect, 100 is complete control; for Ragweed plant response rating: Postemergence, 125 g ai/ha, 0 to 100 scale (0 no effect, 100 complete control)
Procedure, shortened: as §1

[9] = test system: pigweed (Amaranthus retroflexus); assay: Test A postemergence, visual plant response rating; conditions: for Pigweed plant response rating (0 to 100 scale): 500 g ai/ha, postemergence, 0 is no effect, 100 is complete control; for Pigweed plant response rating: Postemergence, 125 g ai/ha, 0 to 100 scale (0 no effect, 100 complete control)
Procedure, shortened: as §1

[10] = test system: Italian ryegrass (Lolium multiflorum); assay: Test A postemergence, visual plant response rating; conditions: for Ryegrass, Italian plant response rating (0 to 100 scale): 500 g ai/ha, postemergence, 0 is no effect, 100 is complete control; for Ryegrass, Italian plant response rating: Postemergence, 125 g ai/ha, 0 to 100 scale (0 no effect, 100 complete control)
Procedure, shortened: as §1

[11] = test system: blackgrass (Alopecurus myosuroides); assay: Test A postemergence, visual plant response rating; conditions: for Blackgrass plant response rating (0 to 100 scale): 500 g ai/ha, postemergence, 0 is no effect, 100 is complete control; for Blackgrass plant response rating: Postemergence, 125 g ai/ha, 0 to 100 scale (0 no effect, 100 complete control)
Procedure, shortened: as §1

corn (Zea mays) = assay: Test A postemergence, visual plant response rating; conditions: for Corn plant response rating (0 to 100 scale): 500 g ai/ha, postemergence, 0 is no effect, 100 is complete control; for Corn plant response rating: Postemergence, 125 g ai/ha, 0 to 100 scale (0 no effect, 100 complete control)
Procedure, shortened: as §1

kochia (Kochia scoparia) [12] = assay: Test A postemergence, visual plant response rating; conditions: for Kochia plant response rating (0 to 100 scale): 500 g ai/ha, postemergence, 0 is no effect, 100 is complete control; for Kochia plant response rating: Postemergence, 125 g ai/ha, 0 to 100 scale (0 no effect, 100 complete control)
Procedure, shortened: as §1

[13] = test system: barnyardgrass (Echinochloa crus-galli); assay: Test A postemergence, visual plant response rating; conditions: for Barnyardgrass plant response rating (0 to 100 scale): 500 g ai/ha, postemergence, 0 is no effect, 100 is complete control; for Barnyardgrass plant response rating: Postemergence, 125 g ai/ha, 0 to 100 scale (0 no effect, 100 complete control)
Procedure, shortened: as §1

[14] = test system: wheat (Triticum aestivum); assay: Test A postemergence, visual plant response rating; conditions: for Wheat plant response rating (0 to 100 scale): 500 g ai/ha, postemergence, 0 is no effect, 100 is complete control; for Wheat plant response rating: Postemergence, 125 g ai/ha, 0 to 100 scale (0 no effect, 100 complete control)
Procedure, shortened: as §1

[15] = test system: foxtail, giant (giant foxtail, Setaria faberii); assay: Test A postemergence, visual plant response rating; conditions: for Foxtail, Giant plant response rating (0 to 100 scale): 500 g ai/ha, postemergence, 0 is no effect, 100 is complete control; for Foxtail, Giant plant response rating: Postemergence, 125 g ai/ha, 0 to 100 scale (0 no effect, 100 complete control)
Procedure, shortened: as §1

[16] = test system: ducksalad (Heteranhera limosa); assay: Test B flooded paddy test, visual plant response rating; conditions: 250 g ai/ha, Flood, applied to paddy water, 2-leaf stage, evaluated after 13 to 15 days
Procedure, shortened: (§2)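 Plants were raised to the 2-leaf stage, then pots were flooded to 3 cm above the soil and test compound was applied directly into the paddy water. Water depth was held for the whole test; after 13 to 15 days in a greenhouse, responses were scored visually against controls.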

[17] = test system: sedge, umbrella (small-flower umbrella sedge, Cyperus difformis); assay: as above; conditions: 250 g ai/ha, Flood, applied to paddy water, 2-leaf stage, evaluated after 13 to 15 days
Procedure, shortened: as §2

rice (Oryza sativa) = assay: as above; conditions: 250 g ai/ha, Flood, applied to paddy water, 2-leaf stage, evaluated after 13 to 15 days
Procedure, shortened: as §2

[18] = test system: barnyardgrass (Echinochloa crus-galli); assay: as above; conditions: 250 g ai/ha, Flood, applied to paddy water, 2-leaf stage, evaluated after 13 to 15 days
Procedure, shortened: as §2

CON=C(c1c(Cl)ccc(C)c1F)c1c(O)c(C)nn(C)c1=O [Compound 101]
Ragweed plant response rating [1]: 20 | Ragweed plant response rating (0 to 100 scale) [1]: 70 | Pigweed plant response rating [2]: 0 | Pigweed plant response rating (0 to 100 scale) [2]: 10 | Ryegrass, Italian plant response rating [3]: 0 | Ryegrass, Italian plant response rating (0 to 100 scale) [3]: 40 | Kochia plant response rating (kochia (Kochia scoparia) [4]): 0 | Kochia plant response rating (0 to 100 scale) (kochia (Kochia scoparia) [4]): 10 | Barnyardgrass plant response rating [5]: 0 | Barnyardgrass plant response rating (0 to 100 scale) [5]: 10 | Foxtail, Giant plant response rating [6]: 0 | Foxtail, Giant plant response rating (0 to 100 scale) [6]: 10 | Galium plant response rating (0 to 100 scale) [7]: 80 | Galium plant response rating [7]: 80 | Ragweed plant response rating (0 to 100 scale) [8]: 60 | Ragweed plant response rating [8]: 40 | Pigweed plant response rating (0 to 100 scale) [9]: 40 | Pigweed plant response rating [9]: 10 | Ryegrass, Italian plant response rating (0 to 100 scale) [10]: 10 | Ryegrass, Italian plant response rating [10]: 0 | Blackgrass plant response rating (0 to 100 scale) [11]: 30 | Blackgrass plant response rating [11]: 0 | Corn plant response rating (0 to 100 scale) (corn (Zea mays)): 0 | Corn plant response rating (corn (Zea mays)): 0 | Kochia plant response rating (0 to 100 scale) (kochia (Kochia scoparia) [12]): 30 | Kochia plant response rating (kochia (Kochia scoparia) [12]): 0 | Barnyardgrass plant response rating (0 to 100 scale) [13]: 30 | Barnyardgrass plant response rating [13]: 30 | Wheat plant response rating (0 to 100 scale) [14]: 0 | Wheat plant response rating [14]: 0 | Foxtail, Giant plant response rating (0 to 100 scale) [15]: 20 | Foxtail, Giant plant response rating [15]: 0 | Plant response rating, Ducksalad (0 to 100 scale, 0 is no effect, 100 is complete control) [16]: 0 | Plant response rating, Sedge, Umbrella (0 to 100 scale, 0 is no effect, 100 is complete control) [17]: 0 | Plant response rating, Rice (0 to 100 scale, 0 is no effect, 100 is complete control) (rice (Oryza sativa)): 0 | Plant response rating, Barnyardgrass (0 to 100 scale, 0 is no effect, 100 is complete control) [18]: 0

CON=C(c1c(O)c(C)nn(C)c1=O)c1cccc2cc(Br)ccc12 [Compound 96]
Ragweed plant response rating [1]: 90 | Ragweed plant response rating (0 to 100 scale) [1]: 100 | Pigweed plant response rating [2]: 80 | Pigweed plant response rating (0 to 100 scale) [2]: 100 | Ryegrass, Italian plant response rating [3]: 30 | Ryegrass, Italian plant response rating (0 to 100 scale) [3]: 100 | Kochia plant response rating (kochia (Kochia scoparia) [4]): 20 | Kochia plant response rating (0 to 100 scale) (kochia (Kochia scoparia) [4]): 100 | Barnyardgrass plant response rating [5]: 60 | Barnyardgrass plant response rating (0 to 100 scale) [5]: 80 | Foxtail, Giant plant response rating [6]: 70 | Foxtail, Giant plant response rating (0 to 100 scale) [6]: 100 | Galium plant response rating (0 to 100 scale) [7]: 90 | Galium plant response rating [7]: 90 | Ragweed plant response rating (0 to 100 scale) [8]: 100 | Ragweed plant response rating [8]: 90 | Pigweed plant response rating (0 to 100 scale) [9]: 90 | Pigweed plant response rating [9]: 80 | Ryegrass, Italian plant response rating (0 to 100 scale) [10]: 80 | Ryegrass, Italian plant response rating [10]: 80 | Blackgrass plant response rating (0 to 100 scale) [11]: 100 | Blackgrass plant response rating [11]: 90 | Corn plant response rating (0 to 100 scale) (corn (Zea mays)): 30 | Corn plant response rating (corn (Zea mays)): 10 | Kochia plant response rating (0 to 100 scale) (kochia (Kochia scoparia) [12]): 80 | Kochia plant response rating (kochia (Kochia scoparia) [12]): 60 | Barnyardgrass plant response rating (0 to 100 scale) [13]: 30 | Barnyardgrass plant response rating [13]: 20 | Wheat plant response rating (0 to 100 scale) [14]: 50 | Wheat plant response rating [14]: 0 | Foxtail, Giant plant response rating (0 to 100 scale) [15]: 70 | Foxtail, Giant plant response rating [15]: 20 | Plant response rating, Ducksalad (0 to 100 scale, 0 is no effect, 100 is complete control) [16]: 0 | Plant response rating, Sedge, Umbrella (0 to 100 scale, 0 is no effect, 100 is complete control) [17]: 0 | Plant response rating, Rice (0 to 100 scale, 0 is no effect, 100 is complete control) (rice (Oryza sativa)): 0 | Plant response rating, Barnyardgrass (0 to 100 scale, 0 is no effect, 100 is complete control) [18]: 0
